Paper PMC9783881, “Synthesis and Preclinical Evaluation of Small-Molecule Prostate-Specific Membrane Antigen-Targeted Abiraterone Conjugate” (Molecules, 2022)
Where two headings read alike, the source gives them in different places.

Experiments:
[1] = Water solubility (comparison in words); type: physicochemical; conditions: compared to AbiAc
[2] = test system: PC-3; test: Single cell ROS measurement with Pt-nanoelectrodes, PC-3; type: cell-based, human; conditions: PC-3, 1 h incubation, IC50 concentration
Procedure: (§1) Commercially available, disk-shaped carbon nanoelectrodes isolated in quartz (ICAPPIC Limited, London, UK) with diameters of 60–100 nm were used to prepare Pt nanoelectrodes for the amperometric detection of intracellular ROS level. Preparation of Pt-nanoelectrodes has been described in detail previously.
(§2) Briefly, a disk-shaped carbon nanoelectrode was etched in a 0.1 M NaOH, 10 mM KCl solution for 20–40 cycles of 10 seconds (from 0 to +2200 mV) to create nanocavities. Electrochemical deposition of platinum in nanocavities was achieved by cycling from 0 to −800 mV with a scan rate of 200 mV s^−1 for 8 to 10 cycles in 2 mM H2PtCl6 solution in 0.1 M hydrochloric acid. […]
(§3) The setup for amperometric measurements included a PC that was connected to a system consisting of an ADC–DAC converter Axon Digidata 1550B (Axon Instruments, Burlingame, CA, USA) and patch-clamp amplifier MultiClamp 700B (Axon Instruments, USA). […] The potential difference between the Pt-nanoelectrode and the reference electrode was recorded with the pClamp 11 software suite (Molecular Devices, Silicon Valley, CA, USA) and processed with Origin 2018 software.
(§4) PC-3 (2.0 × 10^5)/22Rv1 (3.5 × 10^5) cells were seeded in 35 mm Petri dishes, incubated under the conditions described above, and then treated for 24 h. […] Untreated cells were used as a control, which was evaluated at the beginning and at the end of the experiment. […]

[3] = test system: human adult dermal fibroblasts (HDFa); test: Cytotoxicity on human adult dermal fibroblasts, MTT-test; type: cell-based
Procedure: Human adult dermal fibroblasts (HDFa). (ATCC) were propagated in DMEM medium (Paneco) supplemented with 10% fetal calf serum (Gibco) and 1% pemicillin/streptomycin in a 5% CO2 atmosphere at 37 °C. Cytotoxicity of PSMA-Abi and AbiAc in fibroblasts were studied using MTT-test. The cells in the exponential growth phase were trypsinized, counted, and seeded at a density of 5000 cells/well in 96-well plate. Cells were incubated with both tested agents at the designated concentrations (0.4–100 μM) for 72 h; then, each well was treated with 20 μL MTT solution in PBS (5 mg/mL) and cells were incubated at least for 3 h, and formazan was dissolved in DMSO. The absorbance was measured at […] and 620 nm using Thermofischer Scientific Multiscan FC. The values for each point were calculated from 6 wells.

[4] = target: T1, cytochrome P450 2D6 (Homo sapiens, UniProt P10635); test: Cytochrome inhibition in human liver microsomes, 2D6; type: in vitro ADME; conditions: substrate Dextromethorphan, read-out: IC50, 2D6 (PSMA-Abi)
T1 construct: isoenzyme activity in human liver microsomes using conventional sample substrates and HPLC-MS/MS detection; from tissue; host or cells: human liver microsomes
Excerpt: (§5) To assess the effect of drugs on liver cytochrome activity in drug development, test systems with recombinant enzymes and fluorescent substrates as well as microsomes with metabolic substrates and HPLC-MS/MS analysis were used. The present study aimed to investigate the effect of targeted delivery drugs specific to malignant prostate cells on cytochrome P450 (CYP450) isoenzyme activity in human liver microsomes using conventional sample substrates and HPLC-MS/MS detection. Detailed methodological parameters are described in the Supplementary Material.

[5] = test system: 22Rv1; test: Single cell ROS measurement with Pt-nanoelectrodes, 22Rv1; type: cell-based, human; conditions: 22Rv1, 1 h incubation, IC50 concentration
Procedure: as §1, §2, §3, §4

[6] = target: T2, cytochrome P450 3A4 (Homo sapiens, UniProt P08684); test: Cytochrome inhibition in human liver microsomes, 3A4; type: in vitro ADME
T2 construct: isoenzyme activity in human liver microsomes using conventional sample substrates and HPLC-MS/MS detection; from tissue; host or cells: human liver microsomes
Excerpt: as §5

[7] = test system: 22Rv1 cells; test: Cell cycle analysis; type: cell-based, human
Procedure: Cell cycle was analyzed in 22Rv1 cells fixed in 70% ethanol with Muse® cell cycle kit. The fixation lasted overnight at −20 °C. Then, cells were collected by centrifugation at 4000 rpm for 10 min and washed with PBS. The cells were resuspended with Muse® Cell Cycle reagent and incubated for 30 min at room temperature in the dark; then, they were counted.

[8] = target: T3, cytochrome P450 2C9 (Homo sapiens, UniProt P11712); test: Cytochrome inhibition in human liver microsomes, 2C9; type: in vitro ADME; conditions: substrate Tolbutamide, read-out: IC50, 2C9 (PSMA-Abi)
T3 construct: isoenzyme activity in human liver microsomes using conventional sample substrates and HPLC-MS/MS detection; from tissue; host or cells: human liver microsomes
Excerpt: as §5

[9] = target: T4, cytochrome P450 2C8 (Homo sapiens, UniProt P10632); test: Cytochrome inhibition in human liver microsomes, 2C8; type: in vitro ADME; conditions: substrate Paclitaxel, read-out: IC50, 2C8 (PSMA-Abi)
T4 construct: isoenzyme activity in human liver microsomes using conventional sample substrates and HPLC-MS/MS detection; from tissue; host or cells: human liver microsomes
T4 sequence (P10632 1-490): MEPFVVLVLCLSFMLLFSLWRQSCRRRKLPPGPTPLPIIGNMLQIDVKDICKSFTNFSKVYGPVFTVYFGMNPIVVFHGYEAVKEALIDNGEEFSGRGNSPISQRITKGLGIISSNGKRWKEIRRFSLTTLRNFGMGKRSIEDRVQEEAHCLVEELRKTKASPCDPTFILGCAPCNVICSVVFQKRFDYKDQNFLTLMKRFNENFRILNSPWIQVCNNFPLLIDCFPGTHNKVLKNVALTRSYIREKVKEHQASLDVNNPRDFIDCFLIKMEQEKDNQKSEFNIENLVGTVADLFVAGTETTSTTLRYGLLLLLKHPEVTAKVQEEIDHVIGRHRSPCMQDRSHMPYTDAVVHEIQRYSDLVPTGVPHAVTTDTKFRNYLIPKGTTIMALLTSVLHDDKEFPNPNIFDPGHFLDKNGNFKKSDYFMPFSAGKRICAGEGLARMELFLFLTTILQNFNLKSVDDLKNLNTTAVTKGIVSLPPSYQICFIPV
Excerpt: as §5

T2 sequence (P08684 whole entry): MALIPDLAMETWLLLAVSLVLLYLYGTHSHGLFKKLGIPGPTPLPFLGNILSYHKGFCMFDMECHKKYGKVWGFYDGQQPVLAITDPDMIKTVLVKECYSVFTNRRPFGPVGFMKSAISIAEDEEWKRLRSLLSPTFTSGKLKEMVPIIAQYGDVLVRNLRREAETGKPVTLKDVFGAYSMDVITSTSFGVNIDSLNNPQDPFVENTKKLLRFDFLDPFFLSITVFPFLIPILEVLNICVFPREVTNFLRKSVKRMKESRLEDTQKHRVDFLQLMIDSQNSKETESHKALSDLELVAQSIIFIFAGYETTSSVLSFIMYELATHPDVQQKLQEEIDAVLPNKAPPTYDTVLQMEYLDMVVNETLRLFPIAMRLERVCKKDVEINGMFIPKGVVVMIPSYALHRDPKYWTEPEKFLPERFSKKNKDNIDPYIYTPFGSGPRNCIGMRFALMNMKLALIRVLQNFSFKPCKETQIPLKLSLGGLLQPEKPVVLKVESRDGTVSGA
T1 sequence (P10635 whole entry): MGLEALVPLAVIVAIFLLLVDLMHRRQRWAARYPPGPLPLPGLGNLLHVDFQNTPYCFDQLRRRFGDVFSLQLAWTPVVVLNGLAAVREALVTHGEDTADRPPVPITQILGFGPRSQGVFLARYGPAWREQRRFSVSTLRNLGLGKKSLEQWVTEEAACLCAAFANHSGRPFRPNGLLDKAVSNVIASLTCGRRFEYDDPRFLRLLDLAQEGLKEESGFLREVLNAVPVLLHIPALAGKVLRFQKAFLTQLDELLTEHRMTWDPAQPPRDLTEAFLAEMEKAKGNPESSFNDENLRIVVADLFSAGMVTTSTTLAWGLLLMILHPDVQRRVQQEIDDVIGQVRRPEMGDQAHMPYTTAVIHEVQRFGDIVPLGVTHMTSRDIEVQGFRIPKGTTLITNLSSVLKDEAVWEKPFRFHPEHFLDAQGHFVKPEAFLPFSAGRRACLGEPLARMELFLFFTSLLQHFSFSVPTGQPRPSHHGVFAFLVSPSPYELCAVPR
T3 sequence (P11712 whole entry): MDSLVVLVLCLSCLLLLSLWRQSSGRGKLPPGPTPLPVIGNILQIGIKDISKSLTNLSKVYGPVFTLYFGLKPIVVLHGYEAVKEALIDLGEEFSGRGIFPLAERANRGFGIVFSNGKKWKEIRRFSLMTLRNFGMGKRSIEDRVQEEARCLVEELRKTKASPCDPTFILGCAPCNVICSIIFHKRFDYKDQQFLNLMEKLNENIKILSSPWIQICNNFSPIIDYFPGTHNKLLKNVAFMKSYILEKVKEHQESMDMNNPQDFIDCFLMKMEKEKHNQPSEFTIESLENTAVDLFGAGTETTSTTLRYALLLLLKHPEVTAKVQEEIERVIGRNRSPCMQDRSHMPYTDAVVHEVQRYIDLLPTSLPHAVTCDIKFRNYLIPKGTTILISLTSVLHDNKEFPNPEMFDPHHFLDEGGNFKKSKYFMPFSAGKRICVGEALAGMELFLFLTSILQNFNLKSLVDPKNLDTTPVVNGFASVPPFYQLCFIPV

In the case of `C[C@]12CC[C@H](OC(=O)CCCc3cn(CCCNC(=O)[C@H](Cc4ccc(O)cc4)NC(=O)[C@H](Cc4ccccc4)NC(=O)CCC(=O)NCCCCCC(=O)N(CCCC[C@H](NC(=O)N[C@@H](CCC(=O)O)C(=O)O)C(=O)O)Cc4cccc(Cl)c4)nn3)CC1=CC[C@@H]1[C@@H]2CC[C@]2(C)C(c3cccnc3)=CC[C@@H]12` [PSMA-Abi], the water solubility [1] is reported as “better water solubility compared to the AbiAc”, the “ROS (hydrogen peroxide) level in single cells” value [2] is reported as “remained at the level of the AbiAc sample” and the CC50 ([3]; HDFa, 72 h, MTT) is reported as greater than 100 µM. For the same molecule, the “toxicity for human fibroblasts” value ([3]; tested concentrations 0.4–100 µM) was “inactive”, the IC50 [4] was 17 ± 1 µM and the “ROS (hydrogen peroxide) level in single cells” value [5] was “significant increase in comparison with both the control and AbiAc groups”. For the same molecule, the IC50 ([6]; substrate Midazolam, read-out: IC50, 3A4-M (PSMA-Abi)) was 1.1 ± 0.2 µM, the IC50 ([6]; substrate Testosterone, read-out: IC50, 3A4-T (PSMA-Abi)) was 5.7 ± 0.8 µM and the “effect on cell cycle” value ([7]; 22Rv1, against a control group) was “not statistically significant against a control group”. The “level of G0/G1 cells” value ([7]; 22Rv1, with increasing concentration) was “practically unchanged”, the IC50 [8] was greater than 25 µM and the IC50 [9] was 4.4 ± 1.1 µM.
